The target of the experiment is T1, Adenosine deaminase (Homo sapiens, UniProt P00813).
T1 sequence (P00813 whole entry): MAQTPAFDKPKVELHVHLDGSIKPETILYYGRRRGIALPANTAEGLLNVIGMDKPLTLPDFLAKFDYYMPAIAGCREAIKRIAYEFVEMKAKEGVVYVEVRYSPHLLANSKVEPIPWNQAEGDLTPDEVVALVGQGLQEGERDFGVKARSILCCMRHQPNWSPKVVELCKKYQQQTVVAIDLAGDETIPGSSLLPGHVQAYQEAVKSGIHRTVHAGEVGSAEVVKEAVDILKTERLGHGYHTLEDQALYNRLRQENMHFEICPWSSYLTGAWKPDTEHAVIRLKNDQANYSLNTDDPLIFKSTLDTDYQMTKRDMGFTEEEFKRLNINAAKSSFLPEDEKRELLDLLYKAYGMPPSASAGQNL
As to the kind of experiment: Compound was evaluated for the inhibition of adenosine deaminase.
Broadly, the Ki is a measure of affinity in units of concentration, obtained from inhibition or displacement. The low end stands for tighter binding, the high end for weaker binding. On to `CCCCCC[C@H]([C@@H](C)O)n1cnc2c(N)ncnc21`, for which the Ki turned out to be 122 nM.
In the case of `CCCCCC[C@@H]([C@@H](C)O)n1cnc2c(N)ncnc21` (stereo in doubt; erythro) [EHNA] it was 0.4 nM.
In the case of `CCCCCC[C@@H]([C@@H](C)O)n1cnc2c(N)ncnc21` (stereo in doubt; (-)) [EHNA] it was 500 nM.
Compound `OC[C@H]1O[C@@H](n2cnc3c2N=CNC[C@H]3O)[C@H](O)[C@@H]1O` [COFORMYCIN] displayed a Ki of 0.1 nM.
In the case of `CCCCCC[C@H]([C@H](C)O)n1cnc2c(N)ncnc21` [(+)-EHNA] it was 2 nM; in that of `CCCCCC[C@@H]([C@H](C)O)n1cnc2c(N)ncnc21`, 80 nM.
